Measurements from US20230131899A1, “INHIBITORS OF MICROBIALLY INDUCED AMYLOID” (Axial Therapeutics, Inc., priority 2020, published 2023).
Like-named read-outs stand apart in the source and are kept apart here.

Tests used:
human α-synuclein = target: T1, human α-synuclein (Homo sapiens, UniProt P37840); assay: Cell-free Thioflavin T assay of α-synuclein aggregation (αSyn ThT Assay); assay type: biochemical; conditions: αSyn 50 μM, compounds 100 μM
T1 construct: the full-length gene for untagged human α-synuclein was inserted; made in house; host or cells: E. coli BL21(DE3), plasmid derived from pT7 or pET11a
Outline: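 Inhibition is reported as 100% minus background-corrected ThT signal relative to vehicle wells, taken at 36, 47, 48 or 72 h or the last read. Reactions held 50 μM recombinant α-synuclein, 20-100 μM compound, 20-40 μM ThT and 1% DMSO. Incubation was at 37° C., shaken, with a glass bead.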

[1] = test system: CsgA gene expression (csgBAC promoter-GFP reporter) in E. coli UTI89; assay: In vitro live cell fluorescent reporter assay of CsgA transcription (Reporter Assay); assay type: cell-based; conditions: Escherichia coli
Outline: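 Compounds at 0.14–100 μM (1% DMSO final) incubated 20 h at 27 °C in YESCA broth with UTI89 carrying a single-copy GFP reporter under the csgBAC intergenic promoter region, inoculum OD600 0.003. Fluorescence normalized to vehicle wells gave IC50 and 50%-of-vehicle concentration; OD600 reduction >10% flagged growth impact.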

[2] = class symbol, read-out: αSyn ThT Assay % inhibition, activity range
[3] = mean percent inhibition relative to DMSO control, read-out: αSyn ThT Assay % inhibition
[4] = read-out: Reporter Assay Abs IC50 (μM), median Abs IC50 in the CsgA reporter assay, N/A = maximum expression reduction is <50% of control
[5] = read-out: Reporter Assay Abs IC50, activity range, class symbol

With `O=C(O)C1CN(CCc2cccc3ccccc23)c2c(-c3cccc(C(F)(F)F)c3)c(Cc3cccc4ccccc34)c(Cl)c(=O)n21` (stereo not shown) [Compound 238, 6-chloro-1-(2-(naphthalen-1-yl)ethyl)-7-(naphthalen-1-ylmethyl)-5-oxo-8-(3-(trifluoromethyl)phenyl)-1,2,3,5-tetrahydroimidazo[1,2-a]pyridine-3-carboxylic acid] the inhibition at 100 µM (human α-synuclein; [2]) was greater than 60%, the inhibition at 100 µM (human α-synuclein; [3]) was 94% and the IC50 [1, 4] was 0.7 µM. The IC50 [1, 5] was less than 1.3 µM.

Work on `COc1ccccc1CN1CC(C(=O)O)n2c1c(-c1cccc(C(F)(F)F)c1)c(Cc1cccc3ccccc13)c(Cl)c2=O` (stereo not shown) [Compound 195, 6-chloro-1-(2-methoxybenzyl)-7-(naphthalen-1-ylmethyl)-5-oxo-8-(3-(trifluoromethyl)phenyl)-1,2,3,5-tetrahydroimidazo[1,2-a]pyridine-3-carboxylic acid] yielded an inhibition at 100 µM (human α-synuclein; [2]) of 31 to 60%, an inhibition at 100 µM (human α-synuclein; [3]) of 45% and an IC50 [1, 4] of 1.8 µM. It also gave an IC50 [1, 5] of 1.3 to 4.5 µM.

Molecule `COc1cc(Cc2cc(=O)n3c(c2-c2cccc(C(F)(F)F)c2)N(Cc2ccccc2)CC3C(=O)O)c2ccccc2c1` (stereo not shown) [Compound 233, 1-benzyl-7-((3-methoxynaphthalen-1-yl)methyl)-5-oxo-8-(3-(trifluoromethyl)phenyl)-1,2,3,5-tetrahydroimidazo[1,2-a]pyridine-3-carboxylic acid] has an inhibition at 100 µM (human α-synuclein; [2]) of 31 to 60%, an inhibition at 100 µM (human α-synuclein; [3]) of 50% and an IC50 [1, 4] of 0.6 µM. The IC50 [1, 5] was less than 1.3 µM.

Work on `CC(C)(C)c1ccc(CCN2CC(C(=O)O)n3c2c(-c2cccc(C(F)(F)F)c2)c(Cc2cccc4ccccc24)c(Cl)c3=O)cc1` (stereo not shown) [Compound 239, 1-(4-(tert-butyl)phenethyl)-6-chloro-7-(naphthalen-1-ylmethyl)-5-oxo-8-(3-(trifluoromethyl)phenyl)-1,2,3,5-tetrahydroimidazo[1,2-a]pyridine-3-carboxylic acid] yielded an inhibition at 100 µM (human α-synuclein; [2]) of 31 to 60%, an inhibition at 100 µM (human α-synuclein; [3]) of 58% and an IC50 [1, 4] of 0.6 µM. For the same molecule, the IC50 [1, 5] was less than 1.3 µM.
